Consider 14 molecules from patent US20130045947A1, “PLA2ACTIVITY AS A MARKER FOR OVARIAN AND OTHER GYNECOLOGIC CANCERS” (INDIANA UNIVERSITY RESEARCH AND TECHNOLOGY CORPORATION, priority 2010, published 2013).

“Also recorded” adds a separate entry of the source. Bounds are passed on as bounds.

Test [1] relates to SKOV3 cells. Nature of the test: Cell migration assay, SKOV3 cells. The test is classed as cell-based, human. The following applies: for stimulation of migration: SKOV3 cells, FIG. 10D; for effect on migration of SKOV3 cells induced by S1 fractions: inhibitor in lower chamber, two different S1 fractions, FIG. 10A. How it is done:
In order to determine whether PLA2 and ATX were functionally involved in ascites-induced migration of EOC cells, the inhibitors MAFP, BEL, and HA130 were added to the lower chambers during the assay. […] The effect of each inhibitor was almost identical whether using S1, S3, or S4 fractions (FIG. 10 and data not shown).

Test [2] deals with SKOV3 cells. As to the kind of experiment: Cell invasion assay. The following applies: FIG. 10D.
Test [3] deals with RAW 264.7 mouse macrophages. Nature of the test: PLA2 activity in conditioned medium (CM) of macrophages. The following applies: for effect on PLA2 activity detected in CM: exosome secretion inhibitors, DMA 5 and 12.5 nM, MBC 1 and 2 mM; for order of effectiveness in reducing PLA2 activity of CM: ABC transporter inhibitors; for effect on PLA2 activity of CM: cells treated 4 hr, 17-hr CM, MK571 10-50 μM, CsA 2-50 μM, glyburide 0.1-2 mM, FIG. 12B. The test is classed as cell-based.

The test system of test [4] is EOC cells. Nature of the test: Ascites-stimulated proliferation, migration and invasion of EOC cells. The note with it: S1 and S3 specimens.
Test [5] has as its system PLA2. The test is classed as biochemical, human.
Test [6] relates to PLA2. The test is classed as biochemical, human. The following applies: for sensitivity of exosome-associated PLA2 activity to inhibitor: exosomes isolated from human ascites (ExoQuick); for inhibition of ascitic PLA2 activity: cell-free human EOC ascites.
A further test concerns tumors. Nature of the test: Tumors from control and BEL-treated mice. The test is classed as in vivo, mouse. An excerpt: Referring now to FIGS. 3A, C and D, PLA2 activities measured from several mouse models for GYN diseases are presented.
Test [7] has as its system PLA2. The class given is biochemical, mouse.
A further test concerns EOC metastasis. The note with it: with low and non-toxic doses of paclitaxel; shown previously; cited from earlier work.
Test [8] deals with SKOV3 cells. Nature of the test: MTT proliferation assay, ascites-stimulated SKOV3 cells. The test is classed as cell-based, human. The following applies: S1-stimulated; 10 μM Ki16425. (Tetrazolium dyes change colour on reduction, which living cells bring about.)
In another test the target is sPLA2 (Apis mellifera, UniProt P00630). The class given is biochemical, bee.
Chain of sPLA2 (P00630 34-167 limits assumed): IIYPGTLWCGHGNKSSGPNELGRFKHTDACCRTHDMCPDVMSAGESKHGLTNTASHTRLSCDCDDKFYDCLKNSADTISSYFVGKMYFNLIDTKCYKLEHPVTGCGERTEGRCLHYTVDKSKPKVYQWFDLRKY
Test [9] has as its system EOC cells. The following applies: has been shown (earlier work); cited from earlier work.
Test [10] relates to SKOV3 cells. Nature of the test: Migration of SKOV3 cells to RAW 264.7 macrophage CM. The class given is cell-based, human. The note with it: MK571 50 μM, glyburide 500 μM; FIG. 12C. The protocol:
Referring now to FIG. 12C, CM from RAW 264.7 mouse macrophages was tested to determine if it would stimulate migration of SKOV3 cells. Migration of SKOV3 cells to 17-hr CM from untreated cells and cells treated with inhibitors (MK571, 50 μM, CsA, 10 μM, glyburide, 500 μM, and MAFP, 20 μM). ***, P<0.001 compared to CM. Data is mean and SD of three membranes; experiment repeated twice. An approximately 2-fold increase in migration with the CM compared to the medium control in the bottom well of the migration chamber was found. […] The addition of MAFP to the CM also abrogated migration.

Turning to `CCCCCCCC/C=C\CCCCCCCC(=O)O` [oleic acid], in the test with SKOV3 cells [1], the stimulation of migration result is on record as “did not stimulate”. For the same molecule, in the test on SKOV3 cells [2], the stimulation of invasion result is listed as “did not stimulate”.

Consider `CCCCCCCCCCCCCCCCOC[C@@H](O)COP(=O)([O-])OCC[N+](C)(C)C` [lyso-PAF, lyso-platelet activating factor], for which the stimulation of migration entry in the test with SKOV3 cells [1] is on record as “did not stimulate”. For the same molecule, in the test on SKOV3 cells [2], the stimulation of invasion entry is given as “did not stimulate”.

Regarding methyl-β-cyclodextrin [MBC], the “effect on PLA2 activity detected in CM” value in test [3] is given as “Neither inhibitor had any significant effect”.

In the case of `O=C1S/C(=C\c2ccc(OCc3cccc(B(O)O)c3)cc2)C(=O)N1Cc1ccc(F)cc1` [HA130], the “effect on migration of SKOV3 cells induced by S1 fractions” value with SKOV3 cells [1] is “dose-dependently reduced”. In addition, in the test on EOC cells [4], the “inhibition of ascites-stimulated proliferation, migration and invasion” value is listed as 10-45%.

Consider `O=C1O/C(=C/Br)CCC1c1cccc2ccccc12` (centres unmarked) [BEL, bromoenol lactone], for which, in the test on PLA2 [5] (frozen human GYN cancer tissue sections, DBPC, FIG. 1D), the “sensitivity of para-nuclear (cancer) PLA2 activities to inhibitor” value was “sensitive”. In addition, the “sensitivity of exosome-associated PLA2 activity to inhibitor” value in the test on PLA2 [6] is “proved sensitive”. The “tumor size / tumorigenesis” value with tumors (BEL-treated vs control mice) was “reduces tumorigenesis; also recorded: significantly smaller”. Moreover, the “PLA2 activity in tumors of treated mice” value with tumors (tumors from BEL-treated vs control mice, FIG. 3B) was “greatly reduced”. Besides, in the test on PLA2 [7] (kidney, lung, liver), the “sensitivity of PLA2 activities in normal mouse tissues” value is recorded as “insensitivity”. For the same molecule, the “effect on sPLA2-like activity of normal mouse kidney tissue” value in the test with PLA2 [7] (mouse kidney, FIG. 3E) is “minimally affected”. Further, the “effect on migration of SKOV3 cells induced by S1 fractions” value in the test with SKOV3 cells [1] is listed as “dose-dependently reduced”. Further, the “inhibition of EOC metastasis in combination” value in the test on EOC metastasis was “can inhibit EOC metastasis”. The “inhibition of ascites-stimulated proliferation, migration and invasion” value in the test on EOC cells [4] is 20-40%.

As to `Cc1noc(-c2ccc(CSCCC(=O)O)cc2)c1NC(=O)OC(C)c1ccccc1Cl` (centres unmarked) [Ki16425], the “proliferation of SKOV3 cells reduced by” value in the test on SKOV3 cells [8] is 12.4±7.44%. The “inhibition of migratory activity induced by S1, S3 and P3 fractions” value in the test on SKOV3 cells [1] (SKOV3 cells pretreated with Ki16425 (10 μM), FIG. 10B) is on record as > 70%.

With `CCCCCCCCCCCCCCCCSC[C@H](COP(=O)(O)OCC[N+](C)(C)C)NC(=O)CCCCCCCCCCCCCCC` [TAPC, thioether amide-PC], the “sensitivity of tumor PLA2 activity to inhibitor” value in the test on PLA2 [5] (frozen tumor sections, MAFP 40 μM, TAPC 250 μM, FIG. 7B) is “but not to an inhibitor of sPLA2”. Also, in the test with PLA2 [6], the “inhibition of ascitic PLA2 activity” value is on record as “did not inhibit” and the “sensitivity of exosome-associated PLA2 activity to inhibitor” value is “proved sensitive”. Moreover, at sPLA2, the “blocking of sPLA2 activity of positive control” value is reported as “blocking sPLA2 activity”.

For the molecule lysophosphatidylcholine [LPC], in the test on EOC cells [9], the “stimulation of EOC cell migration” value is “does not stimulate”.

With `COc1ccc(Cl)cc1C(=O)NCCc1ccc(S(=O)(=O)NC(=O)NC2CCCCC2)cc1` [glyburide], in test [3], the “order of effectiveness in reducing PLA2 activity of CM” value was “MK571>glyburide>CsA” and the “effect on PLA2 activity of CM” value was “dose-responsively reduced”. For the same molecule, the “migration of SKOV3 cells to CM from inhibitor-treated macrophages” value in the test with SKOV3 cells [10] is reported as “did not stimulate migration”.

Regarding cyclosporine A [CsA], in [3], the “order of effectiveness in reducing PLA2 activity of CM” value was “MK571>glyburide>CsA” and the “effect on PLA2 activity of CM” value is on record as “dose-responsively reduced”.

With `CN(C)c1nc(N)c(C(=O)N=C(N)N)nc1Cl.Cl` [DMA, 5,5-(N—N-Dimethyl)-amiloride hydrochloride], in test [3], the “effect on PLA2 activity detected in CM” value is on record as “Neither inhibitor had any significant effect”.

With `O[C@@H](CS)[C@@H](O)CS` [DTT], the “inhibition of ascitic PLA2 activity” value in the test on PLA2 [6] is “did not inhibit”.

As for `CN(C)C(=O)CCSC(SCCC(=O)O)c1cccc(/C=C/c2ccc3ccc(Cl)cc3n2)c1` (centres unmarked) [MK571], in test [3], the “order of effectiveness in reducing PLA2 activity of CM” value is listed as “MK571>glyburide>CsA” and the “effect on PLA2 activity of CM” value was “dose-responsively reduced”. Moreover, in the test on SKOV3 cells [10], the “migration of SKOV3 cells to CM from inhibitor-treated macrophages” value is recorded as “did not stimulate migration”.

As to Lysophosphatidylinositol [LPI], the stimulation of migration entry in the test on SKOV3 cells [1] was “did not stimulate”. Moreover, the stimulation of invasion entry in the test on SKOV3 cells [2] is reported as “did not stimulate”.
